Data taken from article PMC9693971, “Fast Screening of Protein Tyrosine Phosphatase 1B Inhibitor from Salvia miltiorrhiza Bge by Cell Display-Based Ligand Fishing” (Molecules, 2022).

Columns and labels:
[1] = target: T1, Protein tyrosine phosphatase 1B (PTP1B) (Homo sapiens, UniProt P18031); experiment: pNPP phosphatase inhibition assay with Lineweaver-Burk kinetics (Ki […], Kis […]); also fished out by PTP1B displayed on E. coli; format: biochemical
T1 construct: gene PTPN1
T1 sequence (P18031 1-435): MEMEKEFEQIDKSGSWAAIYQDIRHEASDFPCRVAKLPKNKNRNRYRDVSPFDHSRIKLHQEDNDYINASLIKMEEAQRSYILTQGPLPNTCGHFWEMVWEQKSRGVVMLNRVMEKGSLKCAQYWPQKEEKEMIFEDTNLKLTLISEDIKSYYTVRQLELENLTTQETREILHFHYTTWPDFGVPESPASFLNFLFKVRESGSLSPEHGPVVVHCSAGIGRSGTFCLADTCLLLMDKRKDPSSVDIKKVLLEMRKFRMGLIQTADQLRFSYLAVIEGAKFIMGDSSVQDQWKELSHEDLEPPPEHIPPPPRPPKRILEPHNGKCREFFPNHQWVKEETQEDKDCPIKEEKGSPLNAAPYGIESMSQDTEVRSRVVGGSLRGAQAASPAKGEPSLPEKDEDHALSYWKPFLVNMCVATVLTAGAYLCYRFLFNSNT

[2] = target: T1, Protein tyrosine phosphatase 1B (PTP1B); experiment: ligand fishing with E. coli surface-displayed PTP1B, HPLC readout, with control cells; not fished by MNPs-PTP1B; format: cell-based

| Compound | IC50 [1] [µM] | ligand fishing with E. coli surface-displayed PTP1B, HPLC readout, with control [2] |
| --- | --- | --- |
| O=C(/C=C/c1ccc(O)c2c1[C@H](C(=O)O[C@H](Cc1ccc(O)c(O)c1)C(=O)O)[C@@H](c1ccc(O)c(O)c1)O2)O[C@H](Cc1ccc(O)c(O)c1)C(=O)O [salvianolic acid B] | 23.3 |  |
| C[C@@H]1O[C@@H](OC[C@H]2O[C@@H](Oc3c(-c4ccc(O)c(O)c4)oc4cc(O)cc(O)c4c3=O)[C@H](O)[C@@H](O)[C@@H]2O)[C@H](O)[C@H](O)[C@H]1O [II, rutin] |  | only EC-PTP1B extracted the positive compound rutin, indicating that EC-PTP1B was efficient for fishing the enzyme ligand |
